Reference: patent US20220265759A1, “COMPOSITION AND METHOD FOR PROMOTING WOUND HEALING” (THE BOARD OF TRUSTEES OF THE UNIVERSITY OF ILLIOIS, priority 2019, published 2022)
Entries after “also recorded” stand apart in the source; their conditions may differ. Peptide text beside a SMILES is read from it. * marks the point of attachment. Myristoyl = CCCCCCCCCCCCCC(=O)*

Key:
eNOS [1] = experiment: Immunoblot of eNOS phosphorylation in endothelial cells; type: cell-based, human; details: in presence of peptide
Description: Immunoblot and Co-Immunoprecipitation (Co-IP). After serum starvation, inhibitors were added 45 minutes prior to stimulation for indicated times at 37° C., and cells were then collected and lysed for western blot analysis. After probing for p-eNOS (Ser1177), p-p85 (Tyr458), p-Src (Tyr 416), and p-ERK (T202/Y204), the same blots were stripped and re-probed for total proteins mentioned above. For detection of CCL28-induced protein levels of β-catenin and Bcl-2, near-confluent endothelial cells were incubated with 500 ng/ml CCL28 for 24 hours in EGM-2 medium containing 1% FBS.

HEK/eNOS cells = experiment: NO production in HEK/eNOS cells; type: cell-based, human; details: HEK/eNOS cells with/without co-expression of CCR10-GFP, pretreatment, compared with control peptide
CaM-eNOS binding = target: T1, CaM-eNOS binding (Homo sapiens, UniProt P0DP23); experiment: Co-IP of eNOS-CaM binding in endothelial cells; type: cell-based; details: pretreatment, 5-minute treatment with 500 ng/ml CCL28
T1 construct: endogenous in cells
From the text: (§1) Co-IP Experiments, cells or mouse wounds were collected after treatment, and lysed in 2% ODG in Tris buffer. The homogenates were further prepared for Co-IP experiments as described in the art (Chen, et al. (2018) Mol. Biol. Cell 29(10):1190-1202; Chen, et al. (2020) FASEB J. 34(4):5838-5850; Chen, et al. (2015) Ann. Rheum. Dis. 74:1898-1906).
It has been reported that calmodulin (CaM) binding to bovine eNOS occurs at residues 493-[…]-512 (SEQ ID NO:2) (Venema, et al. (1996) J. Biol. Chem. 271(11):6435-6440; Venema, et al. (1995) J. Biol. Chem. 270:14705-14711). Therefore, using Co-IP, it was assessed whether Myr-CBD7 affects eNOS-CaM binding.

wound blood perfusion = experiment: Blood perfusion by laser speckle contrast analysis (LASCA) in db/db mouse wounds; type: in vivo, db/db mice; details: day 7, 50 μM, vs control peptide
Description: Blood Perfusion Measurement. Immediately after creation of dorsal skin wounds on db/db mice using an 8 mm punch, 50 μl of 50 μM Myr-scrambled control or Myr-CBD7 peptide in F-127 gel sold under the tradename PLURONIC® was applied topically to the wounds on db/db mice. Blood perfusion was analyzed based on motion detected below the surface of the wound using a near infrared laser based PeriCam PSI laser speckle contrast analysis system (LASCA) as described previously (Elgharably, et al. (2013) Wound Repair Regen. 21(3):473-481; Das, et al. (2016) J. Immunol. 196(12):5089-5100).
To further investigate if Myr-CBD7 promotes healing of dorsal skin wounds on db/db mice by stimulating angiogenesis, blood perfusion as detected by laser speckle contrast analysis (LASCA), was monitored.

eNOS [2] = experiment: eNOS protein level in WT mouse wounds; type: in vivo, WT C57BL/6 mice; details: day 7, compared to control peptide
CCR10-eNOS interaction = target: T2, CCR10-eNOS interaction (Mus musculus, UniProt Q9JL21); experiment: Co-IP of CCR10-eNOS interaction in db/db mouse wounds; type: in vivo, db/db mice; details: day 12, vs Ctl-P
T2 construct: cells or mouse wounds were collected after treatment, and lysed in 2% ODG in Tris buffer; tissue Jackson Laboratory; host or cells: dorsal skin wounds of WT C57BL/6 or db/db mice
T2 sequence (Q9JL21 1-362): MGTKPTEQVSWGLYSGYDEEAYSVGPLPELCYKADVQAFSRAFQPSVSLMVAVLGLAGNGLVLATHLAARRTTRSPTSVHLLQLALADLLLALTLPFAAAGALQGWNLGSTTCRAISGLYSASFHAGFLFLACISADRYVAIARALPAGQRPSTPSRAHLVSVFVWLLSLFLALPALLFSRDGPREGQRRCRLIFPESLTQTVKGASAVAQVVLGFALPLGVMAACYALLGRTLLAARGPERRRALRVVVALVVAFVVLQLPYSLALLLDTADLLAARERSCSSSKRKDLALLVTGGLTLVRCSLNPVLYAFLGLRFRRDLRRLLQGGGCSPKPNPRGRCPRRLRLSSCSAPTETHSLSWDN
Description: as §1
(§2) Two 8 mm full thickness excisional wounds were made on the dorsal skin of diabetic db/db mice and then 50 μl of 50 μM Myr-CBD7 peptide was topically applied. […] Reduced CCR10-eNOS interaction was also observed in the mouse wounds following treatment with Myr-CBD7 peptide as determined by Co-IP (FIG. 6).

[3] = test system: full thickness excisional wounds on db/db mouse dorsal skin; experiment: Excisional dorsal skin wound healing in diabetic db/db mice; type: in vivo
Description: Mouse Healing Models. All animal procedures were performed in accordance with the Guide for the Care and Use of Laboratory Animals (National Institutes of Health). WT C57BL/6, eNOS^−/− and db/db mice were purchased from Jackson Laboratory (Bar Harbor, Me.). CCR10^−/− mice have been described in the art, see, e.g., Jin, et al. (2011) J. Immunol. 185(10):5723-31. Four 5-mm or two 8-mm full thickness excisional wounds were made on the dorsal skin of mice (male, aged at 9 weeks) using a standard skin biopsy punch under ketamine (100 mg/kg) and xylazine (5 mg/kg) anesthesia. Scrambled myristoylated (Myr−) control or Myr-CBD7 peptides were applied topically to wounds in F-127 gel sold under the tradename PLURONIC® after wounding (Mirza, et al. (2009) Am. J. Pathol. 175:2454-2462). Wound size was determined as previously described (Chen, et al. (2020) FASEB J. 34(4):5838-5850; Zhao, et al. (2016) PLoS ONE. 11:e0146451) and wounds were collected at indicated times for indicated measurements.
as §2

## CCCCCCCCCCCCCC(=O)N[C@@H](CCCCN)C(=O)N[C@H](C(=O)N[C@@H](CO)C(=O)N[C@@H](C)C(=O)N[C@@H](CO)C(=O)N[C@@H](CC(C)C)C(=O)N[C@@H](CCSC)C(=O)O)[C@@H](C)CC [Myr-CBD7, myr-KISASLM] (Myristoyl-KISASLM-OH)
eNOS [1]
  eNOS phosphorylation (Ser1177): significantly enhanced
HEK/eNOS cells
  NO production: elevated significantly
CaM-eNOS binding
  CaM-eNOS binding (Co-IP): no effect
Wound blood perfusion
  blood perfusion: significantly increased
eNOS [2]
  eNOS protein level in wounds: enhanced
CCR10-eNOS interaction
  CCR10-eNOS interaction in wounds (Co-IP): Reduced; also recorded: disrupted
[3]; 50 μl of 50 μM topical, vs control peptide
  decrease of wound healing time: 4 days
[3]; day 4, compared to control peptide
  reduction of wound size: 19%
[3]; day 12, compared to control peptide
  reduction of wound size: 46%
[3]; from day 4, 30 μl (50 μM) topical, compared with control construct
  wound size (FIG. 5): reduces wound size significantly
